Patent US8889370B2, “Method of determining inhibitors of coagulation” (Siemens Healthcare Diagnostics Products GmbH, priority 2010, dated 2014)
Like-named read-outs stand apart in the source and are kept apart here.

Target: T1, factor Xa (Homo sapiens, UniProt P00742)
T1 construct: an F Xa reagent consisting of a lyophilized plasma fraction containing factor Xa; purchased Siemens Healthcare Diagnostics (Berichrom heparin assay, F Xa reagent); host or cells: plasma fraction
Experiment: Determination of the F Xa binding constant (Ki) of peptide aldehyde ligands, chromogenic assay with Berichrom heparin assay reagents, Dixon plot
Type: biochemical
Description: The kinetic data of the peptide aldehyde ligands were determined in chromogenic assay formats by measuring the rate of hydrolysis of chromogenic peptide substrates which compete with the peptide aldehyde ligands for binding to the active site of the particular enzyme, at various substrate concentrations and peptide aldehyde-ligand concentrations. The binding constant (Ki) was determined by a known method (Dixon, M., 1953, Biochem J, 55, 170-171).
The F Xa binding constant was determined using the reagents of the Berichrom® heparin assay from Siemens Healthcare Diagnostics. The Berichrom® heparin assay consists of: an F Xa reagent consisting of a lyophilized plasma fraction containing factor Xa, and additives such as Tris, NaCl, EDTA and preservatives, a chromogenic substrate reagent (Z-D-Leu-Gly-Arg-ANBA-methyl-amide), a dilution reagent for reconstitution, and a dextran sulfate reagent consisting of lyophilized dextran sulfate.
After reconstitution in 10 ml of dilution reagent, the dextran sulfate concentration is 0.02 g/l. The F Xa reagent is reconstituted with the reconstituted dextran sulfate reagent. The substrate reagent, after constitution with 2 ml of deionized water, contains 4 mmol/l Z-D-Leu-Gly-Arg-ANBA-methyl-amide. Dilutions of the substrate reagent were prepared with deionized water. The peptide aldehyde ligands prepared according to example 1 were dissolved in water and used as sample. The assays were carried out automatically in a BCS® XP coagulation analyzer (Siemens Healthcare Diagnostics, Marburg, Germany).
A reaction mix was mixed together as follows:
15 μl of sample (peptide aldehyde ligand B-r-G-R—H or B-f-P—R—H), […]
30 μl of substrate reagent (Z-D-Leu-Gly-Arg-ANBA-methyl-amide).
The reaction rate in mE/min was determined on the basis of the increase in optical density of the reaction mix at a wavelength of 405 nm. For this, the optical density of the reaction mixes was determined in a time interval from 10 to 70 seconds.

T1 sequence (P00742 235-488 limits assumed): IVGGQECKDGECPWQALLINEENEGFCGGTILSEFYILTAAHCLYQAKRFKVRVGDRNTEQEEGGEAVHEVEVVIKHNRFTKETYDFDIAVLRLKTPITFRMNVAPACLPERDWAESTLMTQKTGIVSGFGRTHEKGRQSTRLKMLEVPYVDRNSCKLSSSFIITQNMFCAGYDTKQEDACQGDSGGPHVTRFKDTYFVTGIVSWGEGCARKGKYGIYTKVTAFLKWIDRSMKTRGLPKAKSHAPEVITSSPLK
T1 sequence (P00742 41-179 partner limits assumed): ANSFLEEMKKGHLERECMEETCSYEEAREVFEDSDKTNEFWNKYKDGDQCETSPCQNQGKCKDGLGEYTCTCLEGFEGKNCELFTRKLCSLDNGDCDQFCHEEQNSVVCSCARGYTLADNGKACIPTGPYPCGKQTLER

`N=C(N)NCCC[C@@H](C=O)NC(=O)CNC(=O)[C@@H](CCCNC(=N)N)NC(=O)CCC(=O)NCCCOCCOCCOCCCNC(=O)CCCC[C@@H]1SC[C@@H]2NC(=O)N[C@@H]21` [B-r-G-R-H, biotinyl-Ttds-D-Arg-Gly-Arg-H] showed a 1/Reaction rate (CB-r-G-R-H 0.20380 μM, Csubstrate = 0.5 mM) of 5.521 min/E, a 1/Reaction rate (CB-r-G-R-H 0.20380 μM, Csubstrate = 2 mM) of 1.457 min/E and a 1/Reaction rate (CB-r-G-R-H 0.20380 μM, Csubstrate = 4 mM) of 0.8262 min/E. For the same compound, the 1/Reaction rate (CB-r-G-R-H 0.32609 μM, Csubstrate = 0.5 mM) was 6.13 min/E, the 1/Reaction rate (CB-r-G-R-H 0.32609 μM, Csubstrate = 2 mM) was 1.612 min/E and the 1/Reaction rate (CB-r-G-R-H 0.32609 μM, Csubstrate = 4 mM) was 0.9061 min/E. For the same compound, the 1/Reaction rate (CB-r-G-R-H 0.40761 μM, Csubstrate = 0.5 mM) was 6.408 min/E, the 1/Reaction rate (CB-r-G-R-H 0.40761 μM, Csubstrate = 2 mM) was 1.659 min/E and the 1/Reaction rate (CB-r-G-R-H 0.40761 μM, Csubstrate = 4 mM) was 0.9259 min/E. For the same compound, the 1/Reaction rate (CB-r-G-R-H 0.65217 μM, Csubstrate = 0.5 mM) was 7.754 min/E, the 1/Reaction rate (CB-r-G-R-H 0.65217 μM, Csubstrate = 2 mM) was 1.975 min/E and the 1/Reaction rate (CB-r-G-R-H 0.65217 μM, Csubstrate = 4 mM) was 1.099 min/E. It also gave a 1/Reaction rate (CB-r-G-R-H 0.81522 μM, Csubstrate = 0.5 mM) of 8.403 min/E, a 1/Reaction rate (CB-r-G-R-H 0.81522 μM, Csubstrate = 2 mM) of 2.115 min/E and a 1/Reaction rate (CB-r-G-R-H 0.81522 μM, Csubstrate = 4 mM) of 1.177 min/E. The 1/Reaction rate (CB-r-G-R-H 1.30435 μM, Csubstrate = 0.5 mM) was 12.05 min/E, the 1/Reaction rate (CB-r-G-R-H 1.30435 μM, Csubstrate = 2 mM) was 2.802 min/E and the 1/Reaction rate (CB-r-G-R-H 1.30435 μM, Csubstrate = 4 mM) was 1.476 min/E. The 1/Reaction rate (CB-r-G-R-H 1.63043 μM, Csubstrate = 0.5 mM) was 13.97 min/E, the 1/Reaction rate (CB-r-G-R-H 1.63043 μM, Csubstrate = 2 mM) was 3.147 min/E and the 1/Reaction rate (CB-r-G-R-H 1.63043 μM, Csubstrate = 4 mM) was 1.679 min/E. The 1/Reaction rate (CB-r-G-R-H 2.60870 μM, Csubstrate = 0.5 mM) was 20.14 min/E, the 1/Reaction rate (CB-r-G-R-H 2.60870 μM, Csubstrate = 2 mM) was 4.627 min/E and the 1/Reaction rate (CB-r-G-R-H 2.60870 μM, Csubstrate = 4 mM) was 2.274 min/E. The 1/Reaction rate (CB-r-G-R-H 3.26087 μM, Csubstrate = 0.5 mM) was 26.42 min/E, the 1/Reaction rate (CB-r-G-R-H 3.26087 μM, Csubstrate = 2 mM) was 5.52 min/E and the 1/Reaction rate (CB-r-G-R-H 3.26087 μM, Csubstrate = 4 mM) was 2.728 min/E. For the same compound, the 1/Reaction rate (CB-r-G-R-H 4.89130 μM, Csubstrate = 0.5 mM) was 37.79 min/E, the 1/Reaction rate (CB-r-G-R-H 4.89130 μM, Csubstrate = 2 mM) was 8.244 min/E and the 1/Reaction rate (CB-r-G-R-H 4.89130 μM, Csubstrate = 4 mM) was 3.745 min/E. The 1/Reaction rate (CB-r-G-R-H 6.52174 μM, Csubstrate = 0.5 mM) was 52.69 min/E, the 1/Reaction rate (CB-r-G-R-H 6.52174 μM, Csubstrate = 2 mM) was 10.45 min/E and the 1/Reaction rate (CB-r-G-R-H 6.52174 μM, Csubstrate = 4 mM) was 4.819 min/E. It also gave a 1/Reaction rate (CB-r-G-R-H 8.15217 μM, Csubstrate = 0.5 mM) of 62.32 min/E, a 1/Reaction rate (CB-r-G-R-H 8.15217 μM, Csubstrate = 2 mM) of 12.99 min/E and a 1/Reaction rate (CB-r-G-R-H 8.15217 μM, Csubstrate = 4 mM) of 5.669 min/E. It also gave a 1/Reaction rate (CB-r-G-R-H 13.04348 μM, Csubstrate = 0.5 mM) of 98.11 min/E, a 1/Reaction rate (CB-r-G-R-H 13.04348 μM, Csubstrate = 2 mM) of 19.61 min/E and a 1/Reaction rate (CB-r-G-R-H 13.04348 μM, Csubstrate = 4 mM) of 8.47 min/E. The “Intersect of regression curve 1/reaction rate vs ligand concentration” value (from here on “Intersect … vs ligand concentration”) (Csubstrate 0.5 mM) was 2.8743 min/E, the “Slope of regression curve 1/reaction rate vs ligand concentration” value (“Slope … vs ligand concentration” below) (Csubstrate 0.5 mM) was 7.3110 min/E μM and the “Intersect … vs ligand concentration” value (Csubstrate 2 mM) was 1.0169 min/E. The “Slope … vs ligand concentration” value (Csubstrate 2 mM) was 1.4375 min/E μM, the “Intersect … vs ligand concentration” value (Csubstrate 4 mM) was 0.7187 min/E and the “Slope … vs ligand concentration” value (Csubstrate 4 mM) was 0.6037 min/E μM. For the same compound, the Ki (intersection of regression curves Csubstrate 2 and 0.5 mM, read-out: Ki2&3 F Xa binding constant) was 316 nM, the Ki (intersection of regression curves Csubstrate 4 and 0.5 mM, read-out: Ki1&3 F Xa binding constant) was 321 nM and the Ki (intersection of regression curves Csubstrate 4 and 2 mM, read-out: Ki1&2 F Xa binding constant) was 358 nM. The “binding of the peptide aldehyde with F Xa (reversible or irreversible)” value (intersections of regression curves not on the x axis) was “reversible” and the Ki (read-out: average F Xa binding constant KiM) was 332 nM.
